Patent US9815788B2, “Anti-angiogenic compounds” (University College Dublin National University of Ireland, …, priority 2012, dated 2017)

Columns and labels:
[1] = system: zebrafish hyaloid vasculature; assay: Quantification of primary hyaloid vasculature branch number in Tg(fli1:EGFP) zebrafish; assay type: in vivo; details: for inhibition of developmental angiogenesis of the hyaloid vasculature (number of primary hyaloid vessels): typically 10 μM or 5 μM, from 24 hpf, vs DMSO control; for dose-dependent inhibition of development of hyaloid vessels: decreasing doses 20, 10, 7.5, 5, 2.5, 1 and/or 0.5 μM
Experimental: (§1) All experiments were carried out under ethical approval granted by the UCD animal research ethics committee. Tg(fli1:EGFP) zebrafish were maintained according to standard procedures on a 14 hr light/10 hr dark cycle at 28° C. Embryos were obtained by natural spawning and developmental stages established by time and morphological criteria. […] Larvae were euthanised, and fixed in 4% PFA at 4° C. overnight before analysis.
Overall patterning of the vasculature (fin, gut and intersegmental vessels) was examined for abnormalities. Right lenses were dissected from the larvae and transferred to depression slides for observation under epi-fluorescence in the Olympus SZX16. Patterning of the hyaloid vessels on the treated larval lenses was compared to DMSO controls and the archetypal pattern previously described (Alvarez et al., 2007; Alvarez et al., 2009).
as §1, with “analysis. Lenses were dissected from the larvae and transferred to depression slides for observation under epi-fluorescence in the Olympus SZX16. Patterning of the hyaloid vessels on the treated larval lenses was compared to DMSO controls and the archetypal pattern previously described (Alvarez et al., 2007; Alvarez et al., 2009).” for “analysis.”

[2] = system: zebrafish intersegmental vessels; assay: Quantification of intersegmental vessel number in zebrafish; assay type: in vivo
Experimental: […] Larvae were manually dechorionated, euthanised, and fixed in 4% PFA at 4° C. overnight before analysis. The larvae were then washed with PBS and transferred to depression slides for observation under epi-fluorescence in an Olympus SZX16 fluorescent microscope. The number of intersegmental vessels was counted and the average number was graphed for each drug.
Larvae were manually dechorionated, euthanised, and fixed in 4% PFA at 4° C. overnight before analysis. The larvae were then washed with PBS and transferred to depression slides for observation under epi-fluorescence in an Olympus SZX16 fluorescent microscope. The number of intersegmental vessels was counted and the average number was graphed for each drug.

Structure (SMILES)	inhibition of developmental angiogenesis of the hyaloid vasculature (number of primary hyaloid vessels) [1]	inhibition of developmental angiogenesis of intersegmental vessels (number of intersegmental vessels) ([2]; 10 μM, from 6 hpf)	also measured
CCN1CCc2cc(OC)c(OC)cc2C1c1ccc2c(c1)OCO2 (racemic) [Compound 11F-CC10, (rac)-1-Benzo[1,3]dioxol-5-yl-6,7-dimethoxy-2-ethyl-1,2,3,4-tetrahydro-isoquinoline]	inhibit developmental angiogenesis of the zebrafish hyaloid vasculature in a statistically significant manner		
COc1ccc(Br)cc1C=Cc1ccc2ccccc2n1 [Compound 11B-074, 2-[2-(5-bromo-2-methoxyphenyl)vinyl]quinoline]	inhibit developmental angiogenesis of the zebrafish hyaloid vasculature in a statistically significant manner		
COc1ccc(I)cc1C=Cc1ccc2ccccc2n1 [Compound 11B-412, 2-[2-(5-iodo-2-methoxyphenyl)vinyl]quinoline]		inhibit developmental angiogenesis of zebrafish intersegmental vessels in a statistically significant manner	
Cc1cccc(/C=C/c2ccc3cccc(O)c3n2)c1O [Compound 11B-438, 2-[(E)-2-(2-Hydroxy-3-methylphenyl)vinyl]-8-quinolinol]	inhibit developmental angiogenesis of the zebrafish hyaloid vasculature in a statistically significant manner	inhibit developmental angiogenesis of zebrafish intersegmental vessels in a statistically significant manner	
Oc1ccccc1/C=C/c1cc(O)c2ccccc2n1 [Compound 11B-470, 2-[(E)-2-(2-Hydroxyphenyl)vinyl]-4-quinolinol]		inhibit developmental angiogenesis of zebrafish intersegmental vessels in a statistically significant manner	
Oc1cccc2ccc(C=Cc3ccccc3Cl)nc12 [Compound 11B-736, 2-[2-(2-chlorophenyl)vinyl]-8-quinolinol]		inhibit developmental angiogenesis of zebrafish intersegmental vessels in a statistically significant manner	
CCOc1ccccc1C=Cc1ccc2cccc(O)c2n1 [Compound 11B-739, 2-[2-(2-ethoxyphenyl)vinyl]-8-quinolinol]	inhibit developmental angiogenesis of the zebrafish hyaloid vasculature in a statistically significant manner		
Cc1ccc2nc(/C=C/c3cccc(O)c3)ccc2c1 [Compound 11B-814, 3-[(E)-2-(6-Methyl-2-quinolinyl)vinyl]phenol]	inhibit developmental angiogenesis of the zebrafish hyaloid vasculature in a statistically significant manner		dose-dependent inhibition of development of hyaloid vessels [1]: dose-dependent effect
Oc1cccc(C=Cc2ccc3ccccc3n2)c1 [Compound 11B_CC2, 3-(2-Quinolin-2-yl-vinyl)-phenol]	inhibit developmental angiogenesis of the zebrafish hyaloid vasculature in a statistically significant manner	inhibit developmental angiogenesis of zebrafish intersegmental vessels in a statistically significant manner	
Cl.Oc1cccc(C=Cc2ccc3ccccc3n2)c1 [Compound 11B_CC2_HCl, 3-(2-Quinolin-2-yl-vinyl)-phenol HCl salt]	inhibit developmental angiogenesis of the zebrafish hyaloid vasculature in a statistically significant manner	inhibit developmental angiogenesis of zebrafish intersegmental vessels in a statistically significant manner	
Cl.Oc1ccc(C=Cc2ccc3ccccc3n2)cc1 [Compound 11B_CC3_HCl, 4-(2-Quinolin-2-yl-vinyl)-phenol HCl salt]		inhibit developmental angiogenesis of zebrafish intersegmental vessels in a statistically significant manner	
Cl.Oc1ccccc1CCc1ccc2ccccc2n1 [Compound 11B_CC4_HCl, 2-(2-Quinolin-2-yl-ethyl)-phenol HCl salt]	inhibit developmental angiogenesis of the zebrafish hyaloid vasculature in a statistically significant manner	inhibit developmental angiogenesis of zebrafish intersegmental vessels in a statistically significant manner	dose-dependent inhibition of development of hyaloid vessels ([1]; HCl salt): inhibit developmental angiogenesis of zebrafish hyaloid vasculature in a dose-dependent statistically significant manner; dose-dependent inhibition of development of hyaloid vessels ([1]; listed as 11B-CC4 HCl, HCl salt): dose-dependent effect
Oc1cccc(CCc2ccc3ccccc3n2)c1 [Compound 11B_CC5, 3-(2-Quinolin-2-yl-ethyl)-phenol]	inhibit developmental angiogenesis of the zebrafish hyaloid vasculature in a statistically significant manner		
Cl.Oc1cccc(CCc2ccc3ccccc3n2)c1 [Compound 11B_CC5_HCl, 3-(2-Quinolin-2-yl-ethyl)-phenol HCl salt]	inhibit developmental angiogenesis of the zebrafish hyaloid vasculature in a statistically significant manner	inhibit developmental angiogenesis of zebrafish intersegmental vessels in a statistically significant manner	dose-dependent inhibition of development of hyaloid vessels ([1]; HCl salt): inhibit developmental angiogenesis of zebrafish hyaloid vasculature in a dose-dependent statistically significant manner; dose-dependent inhibition of development of hyaloid vessels ([1]; listed as 11B-CC5 HCl, HCl salt): dose-dependent effect
C/C(=C\c1ccccc1O)c1ccc2ccccc2n1 [Compound 11B_CC11, (E)-2-(2-Quinolin-2-yl-propenyl)-phenol]	inhibit developmental angiogenesis of the zebrafish hyaloid vasculature in a statistically significant manner	inhibit developmental angiogenesis of zebrafish intersegmental vessels in a statistically significant manner	
Oc1ccc(O)c(/C=C/c2ccc3ccccc3n2)c1 [Compound 11B_CC12, (E)-2-(2-Quinolin-2-yl-vinyl)--benzene-1,4-diol]			inhibition of developmental angiogenesis of intersegmental vessels (number of intersegmental vessels) ([2]; 11B_CC12 tested at 2.5 μM, n=2): inhibit developmental angiogenesis of zebrafish intersegmental vessels in a statistically significant manner
Oc1cccc(C#Cc2ccc3ccccc3n2)c1 [Compound 11B_CC15, 3-Quinolin-2-yl-ylethynyl-phenol]		inhibit developmental angiogenesis of zebrafish intersegmental vessels in a statistically significant manner	
Cl.Oc1cccc(C#Cc2ccc3ccccc3n2)c1 [Compound 11B_CC15_HCl, 3-Quinolin-2-yl-ylethynyl-phenol HCl salt]		inhibit developmental angiogenesis of zebrafish intersegmental vessels in a statistically significant manner	
CCOc1cc2c(cc1OCC)C(c1cc3c(cc1Br)OCO3)NCC2 (centres unmarked) [Compound 11F-001, 1-(6-bromo-1,3-benzodioxol-5-yl)-6,7-diethoxy-1,2,3,4-tetrahydroisoquinoline]	inhibit developmental angiogenesis of the zebrafish hyaloid vasculature in a statistically significant manner		
COc1cc(CN2CCc3ccccc3C2)cc2c1OCO2 [Compound 11F-708, 2-[(7-methoxy-1,3-benzodioxol-5-yl)methyl]-1,2,3,4-tetrahydroisoquinoline]	inhibit developmental angiogenesis of the zebrafish hyaloid vasculature in a statistically significant manner		
Oc1ccc(-c2ccc3c(c2)OCO3)cc1CN1CCc2ccccc2C1 [Compound 11F-978, 4-(1,3-benzodioxol-5-yl)-2-(3,4-dihydro-2(1H)-isoquinolinylmethyl)phenol]	inhibit developmental angiogenesis of the zebrafish hyaloid vasculature in a statistically significant manner		
